Laboratory results published in patent publication US11149037B2, “Pyrazole MAGL inhibitors” (H. Lundbeck A/S, priority 2017, dated 2021).

Columns and labels:
Format in all cases: biochemical
MAGL [1] = biological target: MAGL (Mus musculus (Mouse), UniProt O35678); test: In vitro competitive activity-based protein profiling, mouse proteomes (brain membrane fraction or cell lysates); conditions: mouse proteome, read-out: MAGL % inh. 1 μM (mouse)
In short: (§1)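 Activity of MAGL and FAAH was quantified from fluorescent gel band intensities. Beforehand, inhibitors at several concentrations competed against subsequent probe labelling (FP-Rh, JW912 or HT-01) in species-matched proteomes, each step 30 min at 37° C.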

FAAH [2] = biological target: FAAH (Mus musculus (Mouse), UniProt O08914); test: as above; conditions: mouse proteome, read-out: FAAH % inh. 1 μM (mouse)
Chain of FAAH (Mus musculus (Mouse), UniProt O08914) (O08914 whole entry): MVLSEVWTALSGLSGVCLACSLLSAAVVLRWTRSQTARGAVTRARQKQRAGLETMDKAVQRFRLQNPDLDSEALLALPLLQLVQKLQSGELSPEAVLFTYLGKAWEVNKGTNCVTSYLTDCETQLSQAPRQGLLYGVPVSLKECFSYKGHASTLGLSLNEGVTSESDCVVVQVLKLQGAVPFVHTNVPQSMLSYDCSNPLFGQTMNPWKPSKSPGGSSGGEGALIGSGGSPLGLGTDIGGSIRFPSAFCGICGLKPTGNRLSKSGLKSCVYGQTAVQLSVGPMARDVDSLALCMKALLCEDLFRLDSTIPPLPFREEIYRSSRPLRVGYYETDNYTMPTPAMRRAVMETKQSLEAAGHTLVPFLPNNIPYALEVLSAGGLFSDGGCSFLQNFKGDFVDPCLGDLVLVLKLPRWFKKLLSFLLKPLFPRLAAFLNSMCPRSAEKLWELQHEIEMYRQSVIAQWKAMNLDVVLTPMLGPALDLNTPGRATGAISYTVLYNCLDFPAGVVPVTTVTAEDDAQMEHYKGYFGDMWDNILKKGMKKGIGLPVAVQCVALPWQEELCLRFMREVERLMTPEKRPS
In short: as §1

FAAH [3] = biological target: FAAH (Homo sapiens (Human), UniProt O00519); test: In vitro competitive activity-based protein profiling, human proteomes (prefrontal cortex or PC3 cell membrane fractions); conditions: human proteome; for inhibition at 1 µM: read-out: FAAH % inh. 1 μM (human)
Chain of FAAH (Homo sapiens (Human), UniProt O00519) (O00519 whole entry): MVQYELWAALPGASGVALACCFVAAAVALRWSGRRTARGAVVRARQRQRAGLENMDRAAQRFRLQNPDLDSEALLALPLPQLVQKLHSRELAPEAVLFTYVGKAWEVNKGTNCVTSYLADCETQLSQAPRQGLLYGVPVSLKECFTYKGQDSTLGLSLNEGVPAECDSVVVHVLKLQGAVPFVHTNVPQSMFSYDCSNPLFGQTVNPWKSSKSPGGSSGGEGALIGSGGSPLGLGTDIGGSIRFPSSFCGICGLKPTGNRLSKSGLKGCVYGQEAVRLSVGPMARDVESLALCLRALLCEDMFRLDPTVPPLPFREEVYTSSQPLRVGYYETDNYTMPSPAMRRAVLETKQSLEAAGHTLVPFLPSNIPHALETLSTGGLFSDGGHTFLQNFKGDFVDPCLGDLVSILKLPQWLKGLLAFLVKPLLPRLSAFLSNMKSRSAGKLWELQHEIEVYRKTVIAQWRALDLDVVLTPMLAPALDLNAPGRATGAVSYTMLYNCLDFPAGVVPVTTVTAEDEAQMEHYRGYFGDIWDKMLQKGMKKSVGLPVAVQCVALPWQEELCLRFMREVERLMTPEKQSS
In short: as §1

MAGL [4] = biological target: MAGL (Homo sapiens (Human), UniProt Q99685); test: as above; conditions: human proteome; for inhibition at 1 µM: read-out: MAGL % inh. 1 μM (human)
Chain of MAGL (Homo sapiens (Human), UniProt Q99685) (Q99685 whole entry): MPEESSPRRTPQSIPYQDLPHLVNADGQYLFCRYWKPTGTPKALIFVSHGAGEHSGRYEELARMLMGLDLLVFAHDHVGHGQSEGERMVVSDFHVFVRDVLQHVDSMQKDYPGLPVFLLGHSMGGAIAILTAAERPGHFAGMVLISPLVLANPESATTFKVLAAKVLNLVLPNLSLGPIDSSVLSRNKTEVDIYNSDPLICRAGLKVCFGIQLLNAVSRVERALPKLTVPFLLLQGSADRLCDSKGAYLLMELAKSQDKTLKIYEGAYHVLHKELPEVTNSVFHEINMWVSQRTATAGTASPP
In short: as §1

Chain of MAGL (Mus musculus (Mouse), UniProt O35678) (O35678 whole entry): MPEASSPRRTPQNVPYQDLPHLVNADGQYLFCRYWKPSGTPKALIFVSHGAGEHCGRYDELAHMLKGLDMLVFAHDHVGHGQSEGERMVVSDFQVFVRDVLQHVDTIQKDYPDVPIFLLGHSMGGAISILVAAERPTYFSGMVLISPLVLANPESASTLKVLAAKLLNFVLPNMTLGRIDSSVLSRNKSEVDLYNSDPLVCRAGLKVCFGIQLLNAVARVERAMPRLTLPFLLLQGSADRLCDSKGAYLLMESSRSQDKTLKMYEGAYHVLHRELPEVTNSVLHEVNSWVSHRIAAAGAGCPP

Row | SMILES | inhibition at 1 µM (MAGL [1]) [%] | inhibition at 1 µM (FAAH [2]) [%] | inhibition at 1 µM (FAAH [3]) [%] | IC50 (FAAH [3]) [µM] | inhibition at 1 µM (MAGL [4]) [%] | IC50 (MAGL [4]) [µM]
1 | CC(=O)Nc1ccn(C(=O)N2CC3CN(Cc4cc(Cl)cc(C(F)(F)F)c4)CC3C2)n1 (stereo not drawn) [Example 146, N-(1-(5-(3-Chloro-5-(trifluoromethyl)benzyl)octahydropyrrolo[3,4-c]pyrrole-2-carbonyl)-1H-pyrazol-3-yl)acetamide] | > 75 | > 75 | > 75 | 1 to 10 | > 75 | < 0.1
2 | CC(=O)Nc1ccn(C(=O)N2CC3CN(Cc4ccc(Cl)c(C5(O)CCCC5)c4)CC3C2)n1 (stereo not drawn) [Example 24, N-(1-(5-(4-Chloro-3-(1-hydroxycyclopentyl)benzyl)octahydropyrrolo[3,4-c]pyrrole-2-carbonyl)-1H-pyrazol-3-yl)acetamide] | > 75 | 0 to 25 | 0 to 25 | – | > 75 | –
3 | CC(=O)Nc1ccn(C(=O)N2CC3CN(Cc4ccc(C(N)=O)c(C(F)(F)F)c4)CC3C2)n1 (stereo not drawn) [Example 124, 4-((5-(3-Acetamido-1H-pyrazole-1-carbonyl)hexahydropyrrolo[3,4-c]pyrrol-2(1H)-yl)methyl)-2-(trifluoromethyl)benzamide] | > 75 | 0 to 25 | 0 to 25 | – | > 75 | –
4 | CC(C)(O)COc1cccc(CN2CCN(C(=O)n3ccc(NS(C)(=O)=O)n3)CC2)c1Cl [Example 34, N-(1-(4-(2-Chloro-3-(2-hydroxy-2-methylpropoxy)benzyl)piperazine-1-carbonyl)-1H-pyrazol-3-yl)methanesulfonamide] | > 75 | > 75 | > 75 | 0.1 to 1 | > 75 | < 0.1
5 | CS(=O)(=O)Nc1ccn(C(=O)N2CCN(Cc3ccc(C(F)(F)F)c(N4CC[C@@H](F)C4)c3)CC2)n1 [Example 120, (R)-N-(1-(4-(3-(3-Fluoropyrrolidin-1-yl)-4-(trifluoromethyl)benzyl)piperazine-1-carbonyl)-1H-pyrazol-3-yl)methanesulfonamide] | > 75 | 0 to 25 | 0 to 25 | – | > 75 | –

Continued, values first:

Row | inhibition at 1 µM (MAGL [1]) [%] | inhibition at 1 µM (FAAH [2]) [%] | inhibition at 1 µM (FAAH [3]) [%] | IC50 (FAAH [3]) [µM] | inhibition at 1 µM (MAGL [4]) [%] | IC50 (MAGL [4]) [µM] | SMILES
6 | > 75 | 0 to 25 | 0 to 25 | – | > 75 | – | CS(=O)(=O)Nc1ccn(C(=O)N2CCN(Cc3nc4ccccc4s3)CC2)n1 [Example 56, N-(1-(4-(Benzo[d]thiazol-2-ylmethyl)piperazine-1-carbonyl)-1H-pyrazol-3-yl)methanesulfonamide]
7 | > 75 | > 75 | 25 to 50 | – | > 75 | – | CC(=O)Nc1ccn(C(=O)N2CC3CN(Cc4cc(Cl)cc(N5CCOCC5)c4)CC3C2)n1 (stereo not drawn) [Example 167, N-(1-(5-(3-Chloro-5-morpholinobenzyl)octahydropyrrolo[3,4-c]pyrrole-2-carbonyl)-1H-pyrazol-3-yl)acetamide]
8 | > 75 | 0 to 25 | 0 to 25 | – | > 75 | – | CS(=O)(=O)Nc1ccn(C(=O)N2CCC3(CCN(Cc4ccc(C(F)(F)F)cc4N4CCC(F)CC4)CC3)C2)n1 [Example 60, N-(1-(8-(2-(4-Fluoropiperidin-1-yl)-4-(trifluoromethyl)benzyl)-2,8-diazaspiro[4.5]decane-2-carbonyl)-1H-pyrazol-3-yl)methanesulfonamide]
9 | > 75 | 0 to 25 | 0 to 25 | 1 to 10 | > 75 | < 0.1 | CS(=O)(=O)Nc1ccn(C(=O)N2CCN(Cc3cc4ccc(C(F)(F)F)cc4s3)CC2)n1 [Example 52, N-(1-(4-((6-(Trifluoromethyl)benzo[b]thiophen-2-yl)methyl)piperazine-1-carbonyl)-1H-pyrazol-3-yl)methanesulfonamide]
